Assay results as given in patent publication US7345091B2, “Carotenoid ether analogs or derivatives for the inhibition and amelioration of disease” (Cardax Pharmaceuticals, Inc., priority 2002, dated 2008).

How the values were obtained:
[1] = human, in vivo, po, 1.1 mg/kg; cited from earlier work
[2] = tested on: C3H10T1/2 cell culture model; assay: Inhibition of MCA-induced neoplastic transformation; format: cell-based, mouse; settings: for percent reduction of MCA-induced neoplastic transformation: 3×10^-6 M in THF
Protocol: Non-esterified, free astaxanthin 2E is generated in the mammalian gut after oral administration of esterified astaxanthin. Only free astaxanthin is found in mammalian plasma and solid organs. […] Inherent esterase activity of serum albumin, and the action of promiscuous esterases in serum and solid organs rapidly generates non-esterified, free astaxanthin after parenteral administration of the disodium disuccinate astaxanthin derivative (XVI). […] An experiment was performed to assess the ability of non-esterified, free astaxanthin (the in vivo final cleavage product of the disodium salt disuccinate astaxanthin derivative (XVI), tested as the all-trans mixture of stereoisomers 3S,3′S, meso, and 3R,3′R in a 1:2:1 ratio) to inhibit neoplastic transformation in the C3H10T1/2 cell culture model developed in the lab of the late Charles Heidelberger (Reznikoff, 1973).
This experiment was conducted according to protocols established previously (Bertram, 1991 and Pung, 1988). In brief, the 10T1/2 cells, derived from mouse embryonic fibroblasts, were seeded at a density of 10^3 cells/60 mm dish in Eagle's Basal Media (BME) (Atlanta Biologicals, Atlanta, Ga.), supplemented with 4% fetal calf serum (Atlanta Biologicals, Atlanta, Ga.) and 25 μg/mL gentamicin sulfate (Sigma, St. Louis, Mo.). Cells were treated 24 hours later with 5.0 μg/ml MCA (Sigma, St. Louis, Mo.) in acetone or with 0.5% acetone (final concentration) as a control. Media was changed 24 hours after MCA treatment. Cells were treated with astaxanthin in THF or with retinol acetate in acetone 7 days later, and re-treated every 7 days for 4 weeks. Other dishes were treated with the appropriate solvent controls. After 5 weeks from the start of the experiment, cells were fixed with methanol and stained with 10% Giemsa stain (Sigma, St. Louis, Mo.) and scored for type II and type III foci as per Reznikoff (1973).

superoxide anion = assay: Superoxide anion scavenging by EPR (DEPMPO spin trap) in phorbol ester-stimulated isolated neutrophils; format: cell-based, human; settings: Homo sapiens, Neutrophil, Solvent DMSO, 0.1 mM; read-out: Mean (% inhibition) of superoxide anion signal
Protocol: In an experiment, neutrophils were isolated on a Percoll gradient from whole blood from a human volunteer. The isolated neutrophils were then re-suspended in phosphate-buffered saline, and maximally stimulated with phorbol ester to induce the respiratory burst and production of superoxide anion. To the solution of activated human neutrophils, the disodium salt disuccinate astaxanthin derivative XVI was added at various concentrations, and the superoxide signal [as measured with electron paramagnetic resonance (EPR) spectroscopy] was subsequently measured. […] The disodium salt disuccinate astaxanthin derivative XVI tested at 100 μM scavenged 28% of the total signal. At 3 mM, almost no superoxide signal remained. […] In addition to reducing the superoxide anion signal important in ischemia-reperfusion injury, it is also likely that myocardial salvage can be achieved with the described carotenoid derivative, as superoxide anion plays a major role in tissue injury and death during prolonged myocardial ischemia. In a third experiment, neutrophils were again isolated on a Percoll gradient from whole blood from a second human volunteer. The isolated neutrophils were then re-suspended in phosphate-buffered saline, and maximally stimulated with phorbol ester to induce the respiratory burst and production of superoxide anion. […] Astaxanthin 2E was dissolved in HPLC grade dimethylsulfoxide (DMSO; Sigma-Aldrich, St. Louis, Mo.). The disodium disuccinate derivatives XVI of astaxanthin 2E were tested separately in […] formulations: statistical mixture of stereoisomers (as for astaxanthin, above, a 1:2:1 mixture of all-E; labeled as “mixture” in all tables and figures); 3S,3'S, and 3R,3'R (optical isomers or enantiomers); and meso (mixture of identical 3S,3'R and 3'S,3R; diastereomers of the enantiomeric pair). […] The disuccinate derivatives were first tested at the appropriate final concentrations in pure aqueous solution (deionized water) from stock solutions of 10 mM. Each of the four disuccinate derivatives were then tested from stock solutions prepared in a 1:2 mixture of ethanol (final concentration of EtOH in stock solution 331⁄3%; final concentration in isolated neutrophil assay 0.3%; HPLC grade ethanol, Sigma-Aldrich, St. Louis, Mo.) at 10 mM. […] Metaphore® Pharmaceuticals, Inc., St. Louis, Mo.) were also performed. Human polymorphonuclear leukocytes (PMNs) were isolated from freshly sampled venous blood of a single volunteer by Percoll density gradient centrifugation, which yielded PMNs with a purity of >95%. Each 10 mL of whole blood was mixed with 0.8 mL of 0.1 M EDTA and 25 mL of saline. The diluted blood was layered over 9 mL of Percoll at a specific density of 1.080 g/mL. After centrifugation at 400×g for 20 min at 20° C., the plasma, mononuclear cell, and Percoll layers were removed. Erythrocytes were lysed by addition of 18 mL of ice-cold water for 30 s, followed by 2 mL of 10× PIPES buffer (25 mM PIPES, 110 mM NaCl, and 5 mM KCl, titrated to pH 7.4 with NaOH). Cells were pelleted at 4° C., the supernatant was decanted, and the procedure was repeated. After the second hypotonic lysis, cells were washed twice with PAG buffer (PIPES buffer containing 0.003% human serum albumin and 0.1% glucose). Afterward, PMNs were counted by light microscopy on a hemocytometer. The final pellet was then suspended in PAG-CM buffer (PAG buffer with 1 mM CaCl2 and 1 mM MgCl2). All EPR measurements were performed using a Bruker ER 300 EPR spectrometer operating at X-band with a TM110 cavity. The microwave frequency was measured with a Model 575 microwave counter (EIP Microwave, Inc., San Jose, Calif.). To measure O^ -2 generation from phorbol-ester (PMA)-stimulated PMNs, EPR spin-trapping studies were performed using DEPMPO (Oxis, Portland, Oreg.) at 10 mM. 1×10^6 PMNs were stimulated with PMA (1 ng/mL) and loaded into capillary tubes for EPR measurements. […]

[3] = read-out: antioxidant ED50 (protective level); cited from earlier work
[4] = From the text: FIG. 27 and FIG. 28 depict the results of spectral analysis after flash photolysis of the formation of triplet and carotenoid cation radical states for non-esterified, free astaxanthin 2E and the diacid disuccinate astaxanthin derivative XV were obtained. Formation of the carotenoid cation radical is a measure of the potential biophysical behavior of the novel derivative as an antioxidant. If a derivative retains the antioxidant behavior of non-esterified, free astaxanthin, then all previously documented (i.e. literature precedent) therapeutic applications for astaxanthin can be reasonably assumed for the novel derivative, including at least singlet oxygen quenching, lipid peroxidation chain-breaking, and/or direct radical scavenging.
In this experiment, nitronaftalin (NN) was used as the photosensitizer. After irradiation, the excited sensitizer (NN*) forms a sensitizer triplet (^3NN). When ^3NN encounters a carotenoid, energy and electron transfer reactions with ^3NN take place. The resulting relatively stable ^3car and carotenoid cation radicals (car*^+) are detected by characteristic absorption bands. Non-polar solvents (e.g. hexane) favor the formation of ^3car, and more polar solvents (alcohols, water) favor the formation of the car.^+. The anion radical of the sensitizer (NN.^−) is not typically seen because of a low absorption coefficient.
The ^3car decays rather quickly. After 15 μs, half of the ^3car has disappeared, and after 50 μs, no ^3car is left.
The spectrum of asta 2E is nearly identical to that of astaCOOH XV. After 50 μs, the ^3car has disappeared. During this time frame, the car.^+ is stable. Negative and positive peaks in the absorption spectra for astaCOOH XV and asta 2E are superimposable.

[5] = tested on: connexin 43 protein expression; assay: Induction of connexin 43 protein expression (Western blot, 96 hours); format: cell-based, mouse; settings: 10^-8 M, 96-hour time point
Protocol: In brief, mouse embryonic fibroblast CH3/10T^1/2 cells were treated with the following formulations in a 4 mL cell culture system with media containing 2% calf serum: • 1. TTNPB [p-(E)-2-(5,6,7,8-tetrahydro-5,5,8,8-tetramethyl-2-napthyl) propenyl benzoic acid] 10^−8 M in acetone [positive control for connexin 43 upregulation (4 μL in 4 mL] • 2. Disodium salt disuccinate astaxanthin derivative XVI/H2O at 10^−5 M (40 μl in 4 mL) • 3. Disodium salt disuccinate astaxanthin derivative XVI/H2O at 10^−6 M (4 μl in 4 mL) • 4. Disodium salt disuccinate astaxanthin derivative XVI/H2O at 10^−7 M (1:10 dilution and 4 μl in 4 mL) • 5. Disodium salt disuccinate astaxanthin derivative XVI H2O/ethanol [EtOH] formulation at 10^-5 M (40 μl in 4 mL) • 6. Disodium salt disuccinate astaxanthin derivative XVI H2O/EtOH formulation at 10^−6 M (4 μl in 4 mL) • 7. Sterile H2O control (40 μl in 4 mL) • 8. Sterile H2O/EtOH control (20 μL EtOH, 20 μL H2O in 4 mL) • 9. Media control (4 mL)
Cells were harvested after 96 hours incubation with test compounds and control solutions. All media solutions were identical in color, however after treatment with the disodium salt disuccinate astaxanthin derivative XVI at both 10^−5 dilutions, the color subjectively changed to an orange-red color. Cells treated with TTNPB appeared striated with light microscopy, evidence of differentiation to myocytes, an expected result in this cell culture system. After harvest and pelleting of cells, tubes containing both 10^−5 disodium salt disuccinate astaxanthin derivative XVI solutions were bright red; both 10^−6 dilution tubes were a pink color. As documented previously for other colored carotenoids, this was subjective evidence for cellular uptake of the test compounds.
Cells were then lysed, and 50 μg of each protein was electrophoresed on a 10% polyacrylamide gel. The gel was then transferred to a nitrocellulose filter. Total protein was assayed with Coomassie blue staining (FIG. 29; lanes 6, 7, and 9 were smeared secondary to gel transfer, and were not included in the quantitative comparison [FIG. 31)]. […]

C3H/10T1/2 cells = assay: Assembly of Cx43 into plaques (immunofluorescent staining); format: cell-based, mouse; settings: 1×10^-8 M in tetrahydrofuran, 4 days
Protocol: In this experiment expression and assembly of Cx43 into plaques was assessed by immunofluorescent staining. Procedures were essentially as described in Zhang (1992). Briefly, confluent cultures of C3H/10T1/2 cells were grown on Permanox plastic 4-chamber slides (Nalge Nunc International, Naperville, Ill.) and treated for 4 days with: (1) the disodium salt disuccinate astaxanthin derivative XVI (statistical mixture of stereoisomers) dissolved in a 1:2 EtOH/H2O formulation; (2) the retinoid TTNPB at 1×10^−8 M in tetrahydrofuran as a positive control; or (3) 1:2 EtOH/H2O as a solvent control. Cells were fixed with −20° C. methanol overnight, washed in buffer, blocked in 1% bovine serum albumin (Sigma, St, Louis, Mo.) in PBS, and incubated with the rabbit polyclonal anti-Cx43 antibody (Zymed, San Francisco, Calif.) as in (2) above and detected with Alexa568 conjugated anti-rabbit secondary (Molecular Probes, Eugene, Oreg.). Slides were illuminated with […] light and images were acquired at a wavelength of 600 nm using the Zeiss Axioscope light microscope and a Roper Scientific cooled CCD camera. […] In cultures treated with solvent as control, such immunoreactive plaques were infrequent and were smaller than those detected in cells treated with the statistical mixture of stereoisomers of the disodium salt disuccinate astaxanthin derivative XVI or with TTNPB as positive control. […]

Row | stability of the carotenoid cation radical (car.+) [4] | SMILES | Cmax, plasma levels [1] [ng/mL] | percent reduction of MCA-induced neoplastic transformation ([2]; 4-week treatment) | percent reduction of MCA-induced neoplastic transformation ([2]; 4-week treatment, listed as Non-esterified, free astaxanthin) [%] | numbers of MCA-induced transformed foci ([2]; 3×10^-6 M, 1×10^-6 M and 3×10^-7 M, 4-week treatment, vs MCA + THF control) | potency as inhibitor of transformation compared with previously tested carotenoids ([2]; comparison with data of Bertram, 1991 (1×10^-5 M)) | inhibition at 100 µM (superoxide anion) [%] | EC50 [3] [nM] | time after which no 3car (carotenoid triplet) is left ([4]; acetonitrile, sensitizer NN) [μs] | induction of connexin 43 expression [5] | assembly of immunoreactive Cx43 into plaques (C3H/10T1/2 cells)
1 | stable | CC1=C(/C=C/C(C)=C/C=C/C(C)=C/C=C/C=C(C)/C=C/C=C(C)/C=C/C2=C(C)C(=O)C(O)CC2(C)C)C(C)(C)CC(O)C1=O (centres unmarked) [Astaxanthin 2E, Astaxanthin] | 1300 | complete suppression of the transformed phenotype | 100 | concentration-dependent decrease | far more potent inhibitor of transformation than either β-carotene or canthaxanthin | 28 | 200 | 50 | – | –
2 | – | C/C(=C\c1ccc(C(=O)O)cc1)c1ccc2c(c1)C(C)(C)CCC2(C)C [TTNPB, p-(E)-2-(5,6,7,8-tetrahydro-5,5,8,8-tetramethyl-2-napthyl) propenyl benzoic acid, reference compound] | – | – | – | – | – | – | – | – | effective at inducing connexin 43 expression | exhibited assembly of immunoreactive Cx43 into plaques
